According to patent publication US20150329498A1, “IRAK INHIBITORS AND USES THEREOF” (Nimbus Iris, Inc., priority 2014, published 2015):

Legend:
[1] = system: TNFα production in THP-1 cells; assay: LPS induced TNFα production assay in THP-1 cells; format: cell-based; conditions: Homo sapiens, 300 ng/mL LPS, measured at 5 hours
Procedure: (§1) Provided compounds were also assayed in an LPS (Lipopolysaccharide) or R848 (TLR-7 agonist) induced cytokine (TNFα and IL8) production assay in THP-1 cells, human white blood cells (hWBC), and human whole blood. The exemplary protocol for this assay in THP-1 cells was as follows below.
(§2) THP-1 cells from ATCC (TIB-202) were cultured in RPMI Medium 1640 (Invitrogen, Cat No. A10491-01), 10% fetal bovine serum (Invitrogen, Cat No. 10099141, Lot No. 8172882) containing 100 U/mL Penicillin, 100 μg/mL streptomycin (Invitrogen, Cat No. 15140-122), and 50 uM 2-Mercaptoethanol (Invitrogen, Cat No. 21985023). LPS-EK ultra pure (Invivogen, Cat No. tlrl-peklps) was used to induce IL8 and TNFα production, that was detected in the cell culture supernatant by IL8 HTRF kit (Cisbio, Cat No. 62IL8PEB) and TNFα HTRF kit (Cisbio, Cat No. 62TNFPEB), as per manufacturer instructions. Cells were cultured in 96 well assay plates at 100,000 cells per well, and compounds diluted in final 0.3% DMSO were pre-incubated with cells for 1 hour prior to stimulation with 300 ng/mL LPS. Cytokine production in cell supernatant was measured at 5 hours for TNFα production, and at 16 hours for IL8 production and assessment of cell viability.
(§3) The compound numbers correspond to the compound numbers in Table 1. Compounds having an activity designated as “A” provided an IC50≦0.5 μM; compounds having an activity designated as “B” provided an IC50 of 0.5-5.0 μM; compounds having an activity designated as “C” provided an IC50>5.0 μM. “NA” stands for “not assayed.”

[2] = system: IL8 production in THP-1 cells; assay: LPS induced IL8 production assay in THP-1 cells; format: cell-based; conditions: Homo sapiens, 300 ng/mL LPS, measured at 16 hours
Procedure: as §1, §2, §3

IRAK4 = molecular target: T1, IRAK4 (Homo sapiens, UniProt Q9NWZ3); assay: IRAK-4 activity inhibition assay (Caliper); format: biochemical; conditions: 3.5 nM IRAK4, 1.5 μM Peptide 8, 37 μM ATP
T1 construct: purchased CARNA Bioscience 09-145
T1 sequence (Q9NWZ3 1-460): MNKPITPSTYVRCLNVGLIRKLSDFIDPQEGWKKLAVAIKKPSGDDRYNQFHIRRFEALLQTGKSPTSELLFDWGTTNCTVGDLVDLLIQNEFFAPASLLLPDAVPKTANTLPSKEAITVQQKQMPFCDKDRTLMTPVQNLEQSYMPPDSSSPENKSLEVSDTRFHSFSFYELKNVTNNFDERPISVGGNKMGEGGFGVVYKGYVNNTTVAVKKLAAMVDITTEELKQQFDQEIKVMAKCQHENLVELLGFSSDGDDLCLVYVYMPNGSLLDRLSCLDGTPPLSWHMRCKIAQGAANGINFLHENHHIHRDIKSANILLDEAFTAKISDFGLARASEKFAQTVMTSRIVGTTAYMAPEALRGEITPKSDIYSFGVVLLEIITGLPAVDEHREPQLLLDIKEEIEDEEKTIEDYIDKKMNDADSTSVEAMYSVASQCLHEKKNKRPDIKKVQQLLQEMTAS
Procedure: A 1x kinase base buffer was prepared from 50 mM HEPES, pH 7.5 and 0.0015% Brij-35. A stop buffer was prepared from 100 mM HEPES, pH 7.5, 0.015% Brij-35, 0.2% Coating Reagent #3, and 50 mM EDTA.
Test compound was diluted to 50× of the final desired highest inhibitor concentration in reaction by 100% DMSO. 100 ul of this compound dilution was transferred to a well in a 96-well plate. For example, if desired highest inhibitor concentration in IC50 determination is 100 uM, then prepare 5000 uM of compound DMSO solution in this step.
Test compound was serially diluted by transferring 30 μl to 60 μl of 100% DMSO in the next well and so forth for a total of 10 concentrations. 100 μl of 100% DMSO was added to two empty wells for no compound control and no enzyme control in the same 96-well plate.
A new 96-well plate was marked as intermediate plate. 5 μl of compound serial dilution was transferred from source plate to the corresponding wells of the intermediate plate. 45 μl of 1x kinase base buffer (KB buffer) was added to each well of the intermediate plate. The intermediate plate was placed for 10 min on a shaker.
5 μl of each well was transferred from the 96-well intermediate plate to a 384-well plate in duplicates. For example, A1 of the 96-well plate is transferred to A1 and A2 of the 384-well plate. A2 of the 96-well plate is transferred to A3 and A4 of the 384-well plate, and so on.
IRAK4 and DTT in 1x kinase base buffer was added. The 2.5x enzyme mix contained 8.8 nM IRAK4 and 5 mM DTT.
Peptide 8, ATP, MgCl2 and MnCl2 were added in the 1x kinase base buffer. The 2.5x peptide mix contained 3.75 μM peptide 8, 92.5 μM ATP, 12.5 mM MgCl2 and 2.5 mM MnCl2.
Assay plate already contained 5 μl of compound in 10% DMSO. Added 10 μl of 2.5x enzyme solution to each well of the 384-well assay plate, except no enzyme control wells. The final concentration of IRAK4 in reaction was 3.5 nM. Added 10 μl of 1x kinase base buffer to no enzyme control wells in the assay plate. Incubated at room temperature for 10 min.
Added 10 μl of 2.5x peptide solution to each well of the 384-well assay plate. The final concentration of Peptide 8 and ATP was 1.5 μM and 37 μM, respectively. Incubated at for 40 minutes. Added 25 μl of stop buffer to stop reaction. Collected data on Caliper.
Copied conversion % data from Caliper program. Converted conversion % values to percent inhibition values. Percent inhibition=(max−conversion %)/(max−min)*100, where “max” means the conversion % of DMSO control and “min” means the conversion % of no enzyme control.
The compound numbers correspond to the compound numbers in Table 1. Compounds having an activity designated as “A” provided an IC50≦5 μM; compounds having an activity designated as “B” provided an IC50 of 5-20 μM; compounds having an activity designated as “C” provided an IC50 of 20-50 μM; and compounds having an activity designated as “D” provided an IC50≧50 μM. “NA” stands for “not assayed.”

## Clc1ccc2ncnc(N[C@H]3CC[C@H](N4CCC5(CC4)CC5)CC3)c2c1 [Compound I-36, N-((1r,4r)-4-(6-azaspiro[2.5]octan-6-yl)cyclohexyl)-6-chloro-quinazolin-4-amine]
[1]
  IC50: ≤ 500 nM
[2]
  IC50: 500 to 5000 nM
IRAK4
  IC50: ≤ 5 µM

## C=Cc1ccc2ncnc(N[C@H]3CC[C@H](N4CCC5(CC4)CC5)CC3)c2c1 [Compound I-38, N-((1r,4r)-4-(6-azaspiro[2.5]octan-6-yl)cyclohexyl)-6-vinyl-quinazolin-4-amine]
[1]
  IC50: ≤ 500 nM
[2]
  IC50: ≤ 500 nM
IRAK4
  IC50: ≤ 5 µM

## CCc1ccc2ncnc(N[C@H]3CC[C@H](N4CCC5(CC4)CC5)CC3)c2c1 [Compound I-39, N-((1r,4r)-4-(6-azaspiro[2.5]octan-6-yl)cyclohexyl)-6-ethyl-quinazolin-4-amine]
[1]
  IC50: ≤ 500 nM
[2]
  IC50: ≤ 500 nM
IRAK4
  IC50: ≤ 5 µM

## OCCc1ccc2ncnc(N[C@H]3CC[C@H](N4CCOCC4)CC3)c2c1 [Compound I-40, 2-(4-(((1r,4r)-4-morpholinocyclohexyl)amino)quinazolin-6-yl)ethanol]
[1]
  IC50: 500 to 5000 nM
[2]
  IC50: ≤ 500 nM
IRAK4
  IC50: ≤ 5 µM

## OC/C=C/c1ccc2ncnc(N[C@H]3CC[C@H](N4CCOCC4)CC3)c2c1 [Compound I-41, (E)-3-(4-(((1r,4r)-4-morpholinocyclohexyl)amino)quinazolin-6-yl)prop-2-en-1-ol]
[1]
  IC50: ≤ 500 nM
[2]
  IC50: ≤ 500 nM
IRAK4
  IC50: ≤ 5 µM

## OCC#Cc1ccc2ncnc(N[C@H]3CC[C@H](N4CCC5(CC4)CC5)CC3)c2c1 [Compound I-44, 3-(4-(((1r,4r)-4-(6-azaspiro[2.5]octan-6-yl)cyclohexyl)amino)-quinazolin-6-yl)prop-2-yn-1-ol]
[1]
  IC50: ≤ 500 nM
[2]
  IC50: ≤ 500 nM
IRAK4
  IC50: ≤ 5 µM

## OCCCc1ccc2ncnc(N[C@H]3CC[C@H](N4CCOCC4)CC3)c2c1 [Compound I-46, 3-(4-(((1r,4r)-4-morpholinocyclohexyl)amino)quinazolin-6-yl)propan-1-ol]
[1]
  IC50: ≤ 500 nM
[2]
  IC50: ≤ 500 nM
IRAK4
  IC50: ≤ 5 µM

## N#Cc1ccc2nccc(N[C@H]3CC[C@H](N4CCOCC4)CC3)c2c1 [Compound I-47, 4-(((1r,4r)-4-morpholinocyclohexyl)amino)quinoline-6-carbo-nitrile]
[1]
  IC50: 500 to 5000 nM
[2]
  IC50: ≤ 500 nM
IRAK4
  IC50: ≤ 5 µM

## N#CCc1ccc2ncnc(N[C@H]3CC[C@H](N4CCC5(CC4)CC5)CC3)c2c1 [Compound I-52, 2-(4-(((1r,4r)-4-(6-azaspiro[2.5]octan-6-yl)cyclohexyl)amino)quin-azolin-6-yl)acetonitrile]
[1]
  IC50: ≤ 500 nM
[2]
  IC50: ≤ 500 nM
IRAK4
  IC50: ≤ 5 µM

## CN(C)[C@H]1CC[C@H](Nc2ncnc3ccc(CC#N)cc23)CC1 [Compound I-53, 2-(4-(((1r,4r)-4-(dimethylamino)cyclohexyl)amino)quinazolin-6-yl)acetonitrile]
[1]
  IC50: 500 to 5000 nM
[2]
  IC50: ≤ 500 nM
IRAK4
  IC50: ≤ 5 µM

## NC(=O)/C=C/c1ccc2ncnc(N[C@H]3CC[C@H](N4CCOCC4)CC3)c2c1 [Compound I-54, (E)-3-(4-(((1r,4r)-4-morpholinocyclohexyl)amino)quinazolin-6-yl)acrylamide]
[1]
  IC50: 500 to 5000 nM
[2]
  IC50: > 5000 nM
IRAK4
  IC50: ≤ 5 µM

## Cc1cc(Nc2nc(N[C@H]3CC[C@H](N4CCOCC4)CC3)c3cc(Br)ccc3n2)sn1 [Compound I-56, 6-bromo-N2-(3-methylisothiazol-5-yl)-N4-((1r,4r)-4-morpholin-ocyclohexyl)quinazoline-2,4-diamine]
[1]
  IC50: ≤ 500 nM
[2]
  IC50: ≤ 500 nM
IRAK4
  IC50: ≤ 5 µM

## N#CCc1ccc2ncnc(N[C@H]3CC[C@H](N4CCC5(CC4)COC5)CC3)c2c1 [Compound I-58, 2-(4-(((1r,4r)-4-(2-oxa-7-azaspiro[3.5]nonan-7-yl)cyclohexyl)-amino)quinazolin-6-yl)acetonitrile]
[1]
  IC50: ≤ 500 nM
[2]
  IC50: ≤ 500 nM
IRAK4
  IC50: ≤ 5 µM

## c1nc(N[C@H]2CC[C@H](N3CCOCC3)CC2)c2cc(-c3cn[nH]c3)ccc2n1 [Compound I-59, N-((1r,4r)-4-morpholinocyclohexyl)-6-(1H-pyrazol-4-yl)quinazolin-4-amine]
[1]
  IC50: ≤ 500 nM
[2]
  IC50: ≤ 500 nM
IRAK4
  IC50: ≤ 5 µM
